≈ marks a conversion by molar mass, not a printed value. Read-outs that look alike come from different tables or passages of the source.
Tested on: N. gonorrhoeae
Assay: MIC determination, Etest
Format: cell-based, Neisseria gonorrhoeae
Settings: Neisseria gonorrhoeae, comparator antibiotics, read-out: Minimum inhibitory concentration
Excerpt: The 2024 WHO N. gonorrhoeae reference strains were used for quality control. Only whole MIC doubling dilutions are reported. Clinical breakpoints or the epidemiological cutoff (ECOFF, to indicate azithromycin resistance) from EUCAST (v14.0, https://www.eucast.org/clinical_breakpoints) were used to classify isolates as antimicrobial susceptible or resistant. […] Two times the standard inoculum defined by CLSI was used to establish consistent growth in untreated control samples for some strains. In vitro time-kill assays were performed according to CLSI guidelines[65] using Columbia Broth (BD Difco) supplemented with 1% IsoVitaleX Enrichment (BD). Viable bacterial counts were generated by plating 10-fold serially diluted samples on GC agar plates containing 1% IsoVitaleX Enrichment (BD).

CO/N=C(\C(=O)N[C@@H]1C(=O)N2C(C(=O)O)=C(CSc3nc(=O)c(=O)[nH]n3C)CS[C@H]12)c1csc(N)n1 [Ceftriaxone, reference compound]
MIC (clinical N. gonorrhoeae isolate 1, Sweden 2023): 4 ng/mL (≈ 7.21 nM) | MIC (clinical N. gonorrhoeae isolate 2, Sweden 2023): 32 ng/mL (≈ 57.7 nM) | MIC (clinical N. gonorrhoeae isolate 3, Sweden 2023): 4 ng/mL (≈ 7.21 nM) | MIC (clinical N. gonorrhoeae isolate 4, Sweden 2023): 32 ng/mL (≈ 57.7 nM) | MIC (clinical N. gonorrhoeae isolate 5, Sweden 2023): 4 ng/mL (≈ 7.21 nM) | MIC (clinical N. gonorrhoeae isolate 6, Sweden 2023): < 2 ng/mL | MIC (clinical N. gonorrhoeae isolate 7, Sweden 2023): 8 ng/mL (≈ 14.4 nM) | MIC (clinical N. gonorrhoeae isolate 8, Sweden 2023): 4 ng/mL (≈ 7.21 nM) | MIC (clinical N. gonorrhoeae isolate 9, Sweden 2023): 4 ng/mL (≈ 7.21 nM) | MIC (clinical N. gonorrhoeae isolate 10, Sweden 2023): < 2 ng/mL | MIC (clinical N. gonorrhoeae isolate 11, Sweden 2023): 64 ng/mL (≈ 115 nM) | MIC (clinical N. gonorrhoeae isolate 12, Sweden 2023): 8 ng/mL (≈ 14.4 nM) | MIC (clinical N. gonorrhoeae isolate 13, Sweden 2023): < 2 ng/mL | MIC (clinical N. gonorrhoeae isolate 14, Sweden 2023): 4 ng/mL (≈ 7.21 nM) | MIC (clinical N. gonorrhoeae isolate 15, Sweden 2023): 4 ng/mL (≈ 7.21 nM) | MIC (clinical N. gonorrhoeae isolate 16, Sweden 2023): 32 ng/mL (≈ 57.7 nM) | MIC (clinical N. gonorrhoeae isolate 17, Sweden 2023): 4 ng/mL (≈ 7.21 nM) | MIC (clinical N. gonorrhoeae isolate 18, Sweden 2023): 4 ng/mL (≈ 7.21 nM) | MIC (clinical N. gonorrhoeae isolate 19, Sweden 2023): 16 ng/mL (≈ 28.9 nM) | MIC (clinical N. gonorrhoeae isolate 20, Sweden 2023): 2 ng/mL (≈ 3.61 nM) | MIC (clinical N. gonorrhoeae isolate 21, Sweden 2023): 2 ng/mL (≈ 3.61 nM) | MIC (clinical N. gonorrhoeae isolate 22, Sweden 2023): 2 ng/mL (≈ 3.61 nM) | MIC (clinical N. gonorrhoeae isolate 23, Sweden 2023): < 2 ng/mL | MIC (clinical N. gonorrhoeae isolate 24, Sweden 2023): 2 ng/mL (≈ 3.61 nM) | MIC (clinical N. gonorrhoeae isolate 25, Sweden 2023): 4 ng/mL (≈ 7.21 nM) | MIC (clinical N. gonorrhoeae isolate 26, Sweden 2023): 4 ng/mL (≈ 7.21 nM) | MIC (clinical N. gonorrhoeae isolate 27, Sweden 2023): 4 ng/mL (≈ 7.21 nM) | MIC (clinical N. gonorrhoeae isolate 28, Sweden 2023): 8 ng/mL (≈ 14.4 nM) | MIC (clinical N. gonorrhoeae isolate 29, Sweden 2023): 4 ng/mL (≈ 7.21 nM) | MIC (clinical N. gonorrhoeae isolate 30, Sweden 2023): < 2 ng/mL | MIC (clinical N. gonorrhoeae isolate 31, Sweden 2023): 4 ng/mL (≈ 7.21 nM) | MIC (clinical N. gonorrhoeae isolate 32, Sweden 2023): 2 ng/mL (≈ 3.61 nM) | MIC (clinical N. gonorrhoeae isolate 33, Sweden 2023): 2 ng/mL (≈ 3.61 nM) | MIC (clinical N. gonorrhoeae isolate 34, Sweden 2023): 4 ng/mL (≈ 7.21 nM) | MIC (clinical N. gonorrhoeae isolate 35, Sweden 2023): 64 ng/mL (≈ 115 nM) | MIC (clinical N. gonorrhoeae isolate 36, Sweden 2023): 8 ng/mL (≈ 14.4 nM) | MIC (clinical N. gonorrhoeae isolate 37, Sweden 2023): 16 ng/mL (≈ 28.9 nM) | MIC (clinical N. gonorrhoeae isolate 38, Sweden 2023): 4 ng/mL (≈ 7.21 nM) | MIC (clinical N. gonorrhoeae isolate 39, Sweden 2023): 4 ng/mL (≈ 7.21 nM) | MIC (clinical N. gonorrhoeae isolate 40, Sweden 2023): 8 ng/mL (≈ 14.4 nM) | MIC (clinical N. gonorrhoeae isolate 41, Sweden 2023): 32 ng/mL (≈ 57.7 nM) | MIC (clinical N. gonorrhoeae isolate 42, Sweden 2023): < 2 ng/mL | MIC (clinical N. gonorrhoeae isolate 43, Sweden 2023): 4 ng/mL (≈ 7.21 nM) | MIC (clinical N. gonorrhoeae isolate 44, Sweden 2023): 64 ng/mL (≈ 115 nM) | MIC (clinical N. gonorrhoeae isolate 45, Sweden 2023): 2 ng/mL (≈ 3.61 nM) | MIC (clinical N. gonorrhoeae isolate 46, Sweden 2023): 16 ng/mL (≈ 28.9 nM) | MIC (clinical N. gonorrhoeae isolate 47, Sweden 2023): 8 ng/mL (≈ 14.4 nM) | MIC (clinical N. gonorrhoeae isolate 48, Sweden 2023): 4 ng/mL (≈ 7.21 nM) | MIC (clinical N. gonorrhoeae isolate 49, Sweden 2023): 4 ng/mL (≈ 7.21 nM) | MIC (clinical N. gonorrhoeae isolate 50, Sweden 2023): 4 ng/mL (≈ 7.21 nM) | MIC (clinical N. gonorrhoeae isolate 51, Sweden 2023): 2 ng/mL (≈ 3.61 nM) | MIC (clinical N. gonorrhoeae isolate 52, Sweden 2023): 2 ng/mL (≈ 3.61 nM) | MIC (clinical N. gonorrhoeae isolate 53, Sweden 2023): 2 ng/mL (≈ 3.61 nM) | MIC (clinical N. gonorrhoeae isolate 54, Sweden 2023): 4 ng/mL (≈ 7.21 nM) | MIC (clinical N. gonorrhoeae isolate 55, Sweden 2023): 4 ng/mL (≈ 7.21 nM) | MIC (clinical N. gonorrhoeae isolate 56, Sweden 2023): 32 ng/mL (≈ 57.7 nM) | MIC (clinical N. gonorrhoeae isolate 57, Sweden 2023): 16 ng/mL (≈ 28.9 nM) | MIC (clinical N. gonorrhoeae isolate 58, Sweden 2023): 2 ng/mL (≈ 3.61 nM) | MIC (clinical N. gonorrhoeae isolate 59, Sweden 2023): 16 ng/mL (≈ 28.9 nM) | MIC (clinical N. gonorrhoeae isolate 60, Sweden 2023): 2 ng/mL (≈ 3.61 nM) | MIC (clinical N. gonorrhoeae isolate 61, Sweden 2023): < 2 ng/mL | MIC (clinical N. gonorrhoeae isolate 62, Sweden 2023): < 2 ng/mL | MIC (clinical N. gonorrhoeae isolate 63, Sweden 2023): < 2 ng/mL | MIC (clinical N. gonorrhoeae isolate 64, Sweden 2023): 16 ng/mL (≈ 28.9 nM) | MIC (clinical N. gonorrhoeae isolate 65, Sweden 2023): < 2 ng/mL | MIC (clinical N. gonorrhoeae isolate 66, Sweden 2023): 32 ng/mL (≈ 57.7 nM) | MIC (clinical N. gonorrhoeae isolate 67, Sweden 2023): 16 ng/mL (≈ 28.9 nM) | MIC (clinical N. gonorrhoeae isolate 68, Sweden 2023): 4 ng/mL (≈ 7.21 nM) | MIC (clinical N. gonorrhoeae isolate 69, Sweden 2023): 4 ng/mL (≈ 7.21 nM) | MIC (clinical N. gonorrhoeae isolate 70, Sweden 2023): < 2 ng/mL | MIC (clinical N. gonorrhoeae isolate 71, Sweden 2023): 32 ng/mL (≈ 57.7 nM) | MIC (clinical N. gonorrhoeae isolate 72, Sweden 2023): 32 ng/mL (≈ 57.7 nM) | MIC (clinical N. gonorrhoeae isolate 73, Sweden 2023): 16 ng/mL (≈ 28.9 nM) | MIC (clinical N. gonorrhoeae isolate 74, Sweden 2023): 32 ng/mL (≈ 57.7 nM) | MIC (clinical N. gonorrhoeae isolate 75, Sweden 2023): 32 ng/mL (≈ 57.7 nM) | MIC (clinical N. gonorrhoeae isolate 76, Sweden 2023): 4 ng/mL (≈ 7.21 nM) | MIC (clinical N. gonorrhoeae isolate 77, Sweden 2023): 2 ng/mL (≈ 3.61 nM) | MIC (clinical N. gonorrhoeae isolate 78, Sweden 2023): 16 ng/mL (≈ 28.9 nM) | MIC (clinical N. gonorrhoeae isolate 79, Sweden 2023): < 2 ng/mL | MIC (clinical N. gonorrhoeae isolate 80, Sweden 2023): 8 ng/mL (≈ 14.4 nM) | MIC (clinical N. gonorrhoeae isolate 81, Sweden 2023): 4 ng/mL (≈ 7.21 nM) | MIC (clinical N. gonorrhoeae isolate 82, Sweden 2023): 16 ng/mL (≈ 28.9 nM) | MIC (clinical N. gonorrhoeae isolate 83, Sweden 2023): 4 ng/mL (≈ 7.21 nM) | MIC (clinical N. gonorrhoeae isolate 84, Sweden 2023): 64 ng/mL (≈ 115 nM) | MIC (clinical N. gonorrhoeae isolate 85, Sweden 2023): 4 ng/mL (≈ 7.21 nM) | MIC (clinical N. gonorrhoeae isolate 86, Sweden 2023): 8 ng/mL (≈ 14.4 nM) | MIC (clinical N. gonorrhoeae isolate 87, Sweden 2023): 2 ng/mL (≈ 3.61 nM) | MIC (clinical N. gonorrhoeae isolate 88, Sweden 2023): 64 ng/mL (≈ 115 nM) | MIC (clinical N. gonorrhoeae isolate 89, Sweden 2023): 4 ng/mL (≈ 7.21 nM) | MIC (clinical N. gonorrhoeae isolate 90, Sweden 2023): 2 ng/mL (≈ 3.61 nM) | MIC (clinical N. gonorrhoeae isolate 91, Sweden 2023): 4 ng/mL (≈ 7.21 nM) | MIC (clinical N. gonorrhoeae isolate 92, Sweden 2023): 4 ng/mL (≈ 7.21 nM) | MIC (clinical N. gonorrhoeae isolate 93, Sweden 2023): 4 ng/mL (≈ 7.21 nM) | MIC (clinical N. gonorrhoeae isolate 94, Sweden 2023): 2 ng/mL (≈ 3.61 nM) | MIC (clinical N. gonorrhoeae isolate 95, Sweden 2023): < 2 ng/mL | MIC (clinical N. gonorrhoeae isolate 96, Sweden 2023): 2 ng/mL (≈ 3.61 nM) | MIC (clinical N. gonorrhoeae isolate 97, Sweden 2023): < 2 ng/mL | MIC (clinical N. gonorrhoeae isolate 98, Sweden 2023): 2 ng/mL (≈ 3.61 nM) | MIC (clinical N. gonorrhoeae isolate 99, Sweden 2023): 4 ng/mL (≈ 7.21 nM) | MIC (clinical N. gonorrhoeae isolate 100, Sweden 2023): 4 ng/mL (≈ 7.21 nM)

Source: publication PMC12446476 (Nature Communications, 2025)
